This passage reports T/C results from PubChem BioAssay AID192 (DTP/NCI, 2004).

This test relates to BDF1 mice, B16 melanoma ip, median survival T/C. Briefly: NCI In Vivo Anticancer Drug Screen. Data for tumor model B16 Melanoma (intraperitoneal) in B6D2F1 (BDF1) mice. As to conditions: endpoint: median survival time, higher = longer survival. How it is done:
The antitumor activity of compounds was measured in mice bearing transplantable tumors. Survival or tumor size were measured and the results are expressed as the measurement made in the treated group (T) divided by the measurement made in the vehicle treated control group (C). The tumor model used in this assay is B16 Melanoma (intraperitoneal) in B6D2F1 (BDF1) mice

The mark [1] stands for this setting: dose: 25.0 mg/kg/injection, schedule: Q01DX009 (ip), vehicle: Klucel (hydroxypropylcellulose) (HPC).
[2] abbreviates: dose: 50.0 mg/kg/injection, schedule: Q01DX009 (ip), vehicle: Klucel (hydroxypropylcellulose) (HPC).
Setting [3] is: dose: 100.0 mg/kg/injection, schedule: Q01DX009 (ip), vehicle: Klucel (hydroxypropylcellulose) (HPC).
Where [4] appears, read: dose: 10.0 mg/kg/injection, schedule: Q01DX009 (ip), vehicle: saline.
The mark [5] stands for this setting: dose: 20.0 mg/kg/injection, schedule: Q01DX009 (ip), vehicle: saline.
Where [6] appears, read: dose: 200.0 mg/kg/injection, schedule: Q01DX009 (ip), vehicle: Klucel (hydroxypropylcellulose) (HPC).
The mark [7] stands for this setting: dose: 400.0 mg/kg/injection, schedule: Q01DX009 (ip), vehicle: Klucel (hydroxypropylcellulose) (HPC).
Where [8] appears, read: dose: 100.0 mg/kg/injection, schedule: Q01DX009 (ip), vehicle: saline with Tween-80.
The mark [9] stands for this setting: dose: 200.0 mg/kg/injection, schedule: Q01DX009 (ip), vehicle: saline with Tween-80.
[10] abbreviates: dose: 12.5 mg/kg/injection, schedule: Q01DX009 (ip), vehicle: Klucel (hydroxypropylcellulose) (HPC).
[11] abbreviates: dose: 6.25 mg/kg/injection, schedule: Q01DX009 (ip), vehicle: saline with Tween-80.
Setting [12] is: dose: 12.5 mg/kg/injection, schedule: Q01DX009 (ip), vehicle: saline with Tween-80.
[13] abbreviates: dose: 200.0 mg/kg/injection, schedule: Q01DX009 (ip), vehicle: saline.

“And” between values parts separate entries of the source, which are not always exact repeats. Equal values may be shown once. Toxic doses and inconclusive results are not listed.

With `CC(=O)CC(=O)Nc1ccc2ccccc2c1`, the T/C under setting [1] was 93 % of control, the T/C under setting [2] was 90 % of control and the T/C under setting [3] was 93 % of control.

For `COC(=O)CC(=O)CBr`, the T/C is, setting by setting: (dose: 5.0 mg/kg/injection, schedule: Q01DX009 (ip), vehicle: saline) 100 % of control; under setting [4], 93 % of control; under setting [5], 94 % of control.

Consider `O=C1N[C@H]2[C@H](CS[C@H]2CCCCC(=O)N(CCP(c2ccccc2)c2ccccc2)CCP(c2ccccc2)c2ccccc2)N1`, for which the T/C under setting [1] was 112 % of control, the T/C under setting [2] is 120 % of control, the T/C under setting [6] was 123 % of control and the T/C under setting [7] is 108 % of control.

Take `CCCCCCCCCC(=O)CC`: the T/C is 100 % of control under setting [2], 99 % of control under setting [3] and 100 % of control under setting [6].

`Cc1ccc([NH-])c([NH-])c1.[Cl][Pt+2][Cl]`: the T/C by setting is: (dose: 1.25 mg/kg/injection, schedule: Q01DX009 (ip), vehicle: saline with Tween-80) 120 % of control; (dose: 5.0 mg/kg/injection, schedule: Q01DX009 (ip), vehicle: saline with Tween-80) 161 % of control.

For `CNC(=O)Oc1ccc2ccccc2c1`, the T/C reads like this: under setting [8], 100 % of control; under setting [9], 104 % of control; (dose: 400.0 mg/kg/injection, schedule: Q01DX009 (ip), vehicle: saline with Tween-80) 93 % of control.

In the case of `Cc1c2ccnc(C(N)=O)c2c(C)c2c1[nH]c1ccccc12`, the T/C reads like this: (dose: 100.0 mg/kg/injection, schedule: Q04DX003 (ip), vehicle: distilled water + Tween-80) 100 % of control; (dose: 200.0 mg/kg/injection, schedule: Q04DX003 (ip), vehicle: distilled water + Tween-80) 114 % of control.

Consider `CN=C(N)Nc1ccc(C(=O)Oc2ccc([N+](=O)[O-])cc2)cc1`, for which the T/C by setting is: under setting [10], 103 % of control; under setting [1], 102 % of control; under setting [2], 104 % of control; under setting [3], 106 % of control.

With `COc1cccc(CNc2ccc(C)cc2C)c1OC`, the T/C is 96 % of control under setting [3], 103 % of control under setting [6] and 96 % of control under setting [7].

For `C[C@]12CC[C@@H]3c4ccc(OC(=O)Cc5ccc(N(CCCl)CCCl)cc5)cc4CC[C@H]3[C@@H]1CC[C@@H]2OC(=O)Cc1ccc(N(CCCl)CCCl)cc1`, the T/C under setting [10] is 95 % of control; the T/C under setting [1] was 108 % of control; the T/C under setting [2] was 104 % of control; the T/C (dose: 64.0 mg/kg/injection, schedule: Q02DX009 (ip), vehicle: Klucel (hydroxypropylcellulose) (HPC)) was 95 % of control; the T/C under setting [3] was 111 % of control; the T/C under setting [6] is 118 % of control. For the same compound, the T/C was 90 % of control (dose: 256.0 mg/kg/injection, schedule: Q02DX009 (ip), vehicle: Klucel (hydroxypropylcellulose) (HPC)) and 123 % of control under setting [7].

As for `CCCCN(CC)C(=S)S[Te](SC(=S)N(CC)CCCC)(SC(=S)N(CC)CCCC)SC(=S)N(CC)CCCC`, the T/C is, setting by setting: under setting [3], 110 % of control; under setting [7], 100 % of control.

With `C=CCC(CC)C(=O)Cl` (stereo unspecified), the T/C runs as follows: (dose: 12.5 mg/kg/injection, schedule: Q04DX003 (ip), vehicle: other) 117 % of control; (dose: 25.0 mg/kg/injection, schedule: Q04DX003 (ip), vehicle: other) 114 % of control; (dose: 50.0 mg/kg/injection, schedule: Q04DX003 (ip), vehicle: other) 96 % of control; (dose: 100.0 mg/kg/injection, schedule: Q04DX003 (ip), vehicle: other) 88 % of control.

`CCCCOc1ccc(NC(N)=Nc2ccc(Cl)cc2)cc1`: the T/C by setting is: (dose: 3.12 mg/kg/injection, schedule: Q01DX009 (ip), vehicle: saline with Tween-80) 95 % of control; under setting [11], 88 % of control; under setting [12], 90 % of control; (dose: 25.0 mg/kg/injection, schedule: Q01DX009 (ip), vehicle: saline with Tween-80) 86 % of control.

For `COc1ccc(C(C(N)=O)N2CCOCC2)cc1` (stereo unspecified), the T/C was 92 % of control under setting [1]; 89 % of control under setting [2]; 87 % of control under setting [3]; 92 % of control (dose: 100.0 mg/kg/injection, schedule: Q04DX003 (ip), vehicle: Klucel (hydroxypropylcellulose) (HPC)); 86 % of control under setting [6]; 95 % of control (dose: 200.0 mg/kg/injection, schedule: Q04DX003 (ip), vehicle: Klucel (hydroxypropylcellulose) (HPC)). In addition, for the setting “dose: 400.0 mg/kg/injection, schedule: Q04DX003 (ip), vehicle: Klucel (hydroxypropylcellulose) (HPC)”, the T/C is 95 % of control.

For `CCCC1(CCC)c2ccccc2C(CCl)(OCC)c2ccccc21`, the T/C was 92 % of control (dose: 12.5 mg/kg/injection, schedule: Q01DX009 (ip), vehicle: other); 102 % of control (dose: 25.0 mg/kg/injection, schedule: Q01DX009 (ip), vehicle: other); 100 % of control (dose: 50.0 mg/kg/injection, schedule: Q01DX009 (ip), vehicle: other); 86 % of control (dose: 75.0 mg/kg/injection, schedule: Q01DX009 (ip), vehicle: other); 86 % of control (dose: 300.0 mg/kg/injection, schedule: Q01DX009 (ip), vehicle: other).

For `CCOC(=O)NC1CCC1NC(=O)OCC` (stereo unspecified), the T/C by setting is: (dose: 100.0 mg/kg/injection, schedule: Q04DX003 (ip), vehicle: saline with Tween-80) 92 % of control; (dose: 200.0 mg/kg/injection, schedule: Q04DX003 (ip), vehicle: saline with Tween-80) 95 % of control.

For the compound `Cc1ccc([N+](=O)[O-])cc1NC(=O)COc1ccc(Cl)cc1Cl`, the T/C runs as follows: (dose: 75.0 mg/kg/injection, schedule: Q01DX009 (ip), vehicle: Klucel (hydroxypropylcellulose) (HPC)) 90 % of control; (dose: 150.0 mg/kg/injection, schedule: Q01DX009 (ip), vehicle: Klucel (hydroxypropylcellulose) (HPC)) 88 % of control; (dose: 300.0 mg/kg/injection, schedule: Q01DX009 (ip), vehicle: Klucel (hydroxypropylcellulose) (HPC)) 86 % of control.

`CC(C)Nc1ccc(Nc2ccc(NC(C)C)cc2)cc1`: the T/C (dose: 4.5 mg/kg/injection, schedule: Q01DX009 (ip), vehicle: alcohol) was 100 % of control; the T/C (dose: 6.75 mg/kg/injection, schedule: Q04DX003 (ip), vehicle: alcohol) is 102 % of control; the T/C (dose: 9.0 mg/kg/injection, schedule: Q01DX009 (ip), vehicle: alcohol) is 92 % of control; the T/C (dose: 13.5 mg/kg/injection, schedule: Q04DX003 (ip), vehicle: alcohol) is 92 % of control and 97 % of control.

On to `O=[N+]([O-])c1ccc(C=C2C(Cl)=C(Cl)C(Cl)=C2Cl)cc1`, for which the T/C by setting is: (dose: 3.13 mg/kg/injection, schedule: Q01DX009 (ip), vehicle: saline with Tween-80) 101 % of control; under setting [11], 91 % of control; under setting [12], 89 % of control.

On to `c1ccc(N/N=C2/c3ccccc3CC23OC3c2ccccc2)cc1` (stereo unspecified), for which the T/C under setting [2] was 87 % of control, the T/C under setting [3] is 96 % of control and the T/C under setting [7] is 89 % of control.

Regarding `C=C1CCN2CCCC12` (stereo unspecified), the T/C was 107 % of control under setting [4]; 104 % of control under setting [5]; 100 % of control (dose: 40.0 mg/kg/injection, schedule: Q01DX009 (ip), vehicle: saline); 95 % of control (dose: 80.0 mg/kg/injection, schedule: Q01DX009 (ip), vehicle: saline).

For `CCCCNC(=S)S`, the T/C reads like this: (dose: 100.0 mg/kg/injection, schedule: Q01DX009 (ip), vehicle: other) 90 % of control; (dose: 200.0 mg/kg/injection, schedule: Q01DX009 (ip), vehicle: other) 94 % of control.

For `CC1(C)COC(c2ccccc2)=N1`, the T/C is 123 % of control (dose: 100.0 mg/kg/injection, schedule: Q01DX009 (ip), vehicle: saline) and 115 % of control under setting [13].

Turning to `O=c1[nH]cc(B(O)O)c(=O)[nH]1`, the T/C under setting [13] is 118 % of control.

On to `CCCC(C)C(C(=O)O)c1ccccc1` (stereo unspecified), for which the T/C reads like this: under setting [8], 110 % of control; under setting [9], 106 % of control; (dose: 300.0 mg/kg/injection, schedule: Q01DX009 (ip), vehicle: saline with Tween-80) 91 % of control.

For `Cc1ccc(NC(=O)c2ccccc2)cc1Cl`, the T/C by setting is: under setting [3], 101 % of control; under setting [6], 103 % of control; under setting [7], 101 % of control.

For the compound `COc1cc(C)c(C2NC(=O)c3ccccc3N2)cc1C` (stereo unspecified), the T/C is, setting by setting: under setting [1], 103 % of control; under setting [2], 113 % of control; under setting [3], 115 % of control; under setting [6], 121 % of control.
